Literature values as cited in patent US9763892B2, “Immediate release phospholipid-coated therapeutic agent nanoparticles and related methods” (Autotelic LLC, priority 2015, dated 2017).

Settings: phospholipid used for PTX-NPs

Point of comparison: `CCCCCCCC/C=C\CCCCCCCC(=O)OC[C@H](COP(=O)([O-])OCC[N+](C)(C)C)OC(=O)CCCCCCC/C=C\CCCCCCCC` [PC-18 (unsaturated), 1,2-dioleoyl-sn-glycero-3-phosphocholine], “Transition Temp.” value −17 °C. Against it:
- CCCCCCCCCCCCCCCC(=O)OC[C@H](COP(=O)([O-])OCC[N+](C)(C)C)OC(=O)CCCCCCCCCCCCCCC [PC 16, 1,2-dipalmitoyl-sn-glycero-3-phosphocholine] — higher, 41 °C
- CCCCCCCCCCCC(=O)OC[C@H](COP(=O)([O-])OCC[N+](C)(C)C)OC(=O)CCCCCCCCCCC [PC-12, 1,2-dilauroyl-sn-glycero-3-phosphocholine] — higher, −2 °C
- CCCCCCCCCCCCCC(=O)OC[C@H](COP(=O)([O-])OCC[N+](C)(C)C)OC(=O)CCCCCCCCCCCCC [PC-14, 1,2-dimyristoyl-sn-glycero-3-phosphocholine] — higher, 24 °C
- CCCCCCCCCCCCCCCCCCCC(=O)OC[C@H](COP(=O)([O-])OCC[N+](C)(C)C)OC(=O)CCCCCCCCCCCCCCCCCCC [PC-20, 1,2-diarachidoyl-sn-glycero-3-phosphocholine] — higher, 66 °C
